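Step 1: Grow cells in 96-well plates. Step 2: Expose to compound for 48 hours at 5 concentrations. Step 3: Interpolate endpoints linearly; if unreached, use highest concentration. GI50 is the concentration that inhibits growth by half. Definition used: TGI = concentration required for complete inhibition of growth.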
Tests used:
Assay in all cases: NCI-60 cell line screen, 48 h
RPMI-8226 leukemia = system: RPMI-8226 leukemia
CAKI-1 renal = system: CAKI-1 renal
UACC-62 melanoma = system: UACC-62 melanoma
SF-295 CNS = system: SF-295 CNS
OVCAR-5 ovarian = system: OVCAR-5 ovarian
SK-MEL-28 melanoma = system: SK-MEL-28 melanoma
SNB-75 CNS = system: SNB-75 CNS
ACHN renal = system: ACHN renal
HOP-62 NSCLC = system: HOP-62 NSCLC
M14 melanoma = system: M14 melanoma
NCI-H226 lung = system: NCI-H226 lung
SK-MEL-5 melanoma = system: SK-MEL-5 melanoma
MOLT-4 leukemia = system: MOLT-4 leukemia
SN12C renal = system: SN12C renal
MCF7 breast = system: MCF7 breast
PC-3 prostate = system: PC-3 prostate
MALME-3M melanoma = system: MALME-3M melanoma
HCT-116 colon = system: HCT-116 colon
A549 NSCLC = system: A549 NSCLC
CCRF-CEM leukemia = system: CCRF-CEM leukemia
HS 578T breast = system: HS 578T breast
SF-268 CNS = system: SF-268 CNS
HT29 colon = system: HT29 colon
COLO 205 colon = system: COLO 205 colon
MDA-MB-435 = system: MDA-MB-435
OVCAR-8 ovarian = system: OVCAR-8 ovarian
786-0 renal = system: 786-0 renal
NCI-H460 lung = system: NCI-H460 lung
HCT-15 colon = system: HCT-15 colon
T-47D breast = system: T-47D breast
SK-MEL-2 melanoma = system: SK-MEL-2 melanoma
MDA-MB-231 breast = system: MDA-MB-231 breast
DU-145 prostate = system: DU-145 prostate
HCC-2998 colon = system: HCC-2998 colon
TK-10 renal = system: TK-10 renal
NCI-H522 lung = system: NCI-H522 lung
IGROV1 ovarian = system: IGROV1 ovarian
NCI/ADR-RES ovarian = system: NCI/ADR-RES ovarian
SNB-19 CNS = system: SNB-19 CNS
K-562 leukemia = system: K-562 leukemia
HL-60(TB) leukemia = system: HL-60(TB) leukemia
SF-539 CNS = system: SF-539 CNS
SW-620 colon = system: SW-620 colon
NCI-H23 lung = system: NCI-H23 lung
A498 renal = system: A498 renal
BT-549 breast = system: BT-549 breast
KM12 colon = system: KM12 colon
HOP-92 NSCLC = system: HOP-92 NSCLC
U251 CNS = system: U251 CNS
UACC-257 melanoma = system: UACC-257 melanoma
OVCAR-3 ovarian = system: OVCAR-3 ovarian
SK-OV-3 ovarian = system: SK-OV-3 ovarian
UO-31 renal = system: UO-31 renal
SR leukemia = system: SR leukemia
RXF 393 renal = system: RXF 393 renal
OVCAR-4 ovarian = system: OVCAR-4 ovarian

`O=C1Nc2ccccc2/C1=C\c1c[nH]c2ccc(Br)cc12` showed a GI50 (RPMI-8226 leukemia) of 2.32 µM, a TGI (RPMI-8226 leukemia) of 7.93 µM and a GI50 (CAKI-1 renal) of 2.67 µM. For the same compound, the TGI (CAKI-1 renal) was 13.6 µM, the GI50 (UACC-62 melanoma) was 1.71 µM and the TGI (UACC-62 melanoma) was 3.72 µM. It also gave a GI50 (SF-295 CNS) of 3.99 µM, a TGI (SF-295 CNS) of 21.6 µM and a GI50 (OVCAR-5 ovarian) of 2.26 µM. The TGI (OVCAR-5 ovarian) was 5.86 µM, the GI50 (SK-MEL-28 melanoma) was 4.16 µM and the TGI (SK-MEL-28 melanoma) was 20.9 µM. It also gave a GI50 (SNB-75 CNS) of 2.68 µM, a TGI (SNB-75 CNS) of 9.37 µM and a GI50 (ACHN renal) of 2.82 µM. It also gave a TGI (ACHN renal) of 10.1 µM, a GI50 (HOP-62 NSCLC) of 3.5 µM and a TGI (HOP-62 NSCLC) of 13.3 µM. For the same compound, the GI50 (M14 melanoma) was 1.67 µM, the TGI (M14 melanoma) was 3.68 µM and the GI50 (NCI-H226 lung) was 6.23 µM. For the same compound, the TGI (NCI-H226 lung) was 41.9 µM, the GI50 (SK-MEL-5 melanoma) was 4.41 µM and the TGI (SK-MEL-5 melanoma) was 17.2 µM. The GI50 (MOLT-4 leukemia) was 2.76 µM, the TGI (MOLT-4 leukemia) was 8.6 µM and the GI50 (SN12C renal) was 2.63 µM. For the same compound, the TGI (SN12C renal) was 7.6 µM, the GI50 (MCF7 breast) was 2.43 µM and the TGI (MCF7 breast) was 11.2 µM. The GI50 (PC-3 prostate) was 2.42 µM, the TGI (PC-3 prostate) was 10.3 µM and the GI50 (MALME-3M melanoma) was 5.55 µM. For the same compound, the TGI (MALME-3M melanoma) was 25.1 µM, the GI50 (HCT-116 colon) was 1.61 µM and the TGI (HCT-116 colon) was 3.11 µM. The GI50 (A549 NSCLC) was 2.26 µM, the TGI (A549 NSCLC) was 6.23 µM and the GI50 (CCRF-CEM leukemia) was 3.18 µM. It also gave a TGI (CCRF-CEM leukemia) of 10.5 µM, a GI50 (HS 578T breast) of 2.2 µM and a TGI (HS 578T breast) of 8.33 µM. For the same compound, the GI50 (SF-268 CNS) was 3.3 µM, the TGI (SF-268 CNS) was 16.2 µM and the GI50 (HT29 colon) was 2.75 µM. It also gave a TGI (HT29 colon) of 6.56 µM, a GI50 (COLO 205 colon) of 1.77 µM and a TGI (COLO 205 colon) of 3.23 µM. It also gave a GI50 (MDA-MB-435) of 2.44 µM, a TGI (MDA-MB-435) of 6.89 µM and a GI50 (OVCAR-8 ovarian) of 2.85 µM. For the same compound, the TGI (OVCAR-8 ovarian) was 10.4 µM, the GI50 (786-0 renal) was 3.82 µM and the TGI (786-0 renal) was 14.7 µM. The GI50 (NCI-H460 lung) was 2.11 µM, the TGI (NCI-H460 lung) was 4.98 µM and the GI50 (HCT-15 colon) was 2.12 µM. It also gave a TGI (HCT-15 colon) of 5.59 µM, a GI50 (T-47D breast) of 3.65 µM and a TGI (T-47D breast) of 30.3 µM. The GI50 (SK-MEL-2 melanoma) was 1.99 µM, the TGI (SK-MEL-2 melanoma) was 4.41 µM and the GI50 (MDA-MB-231 breast) was 1.63 µM. For the same compound, the TGI (MDA-MB-231 breast) was 3.24 µM, the GI50 (DU-145 prostate) was 3.23 µM and the TGI (DU-145 prostate) was 11 µM. For the same compound, the GI50 (HCC-2998 colon) was 1.86 µM, the TGI (HCC-2998 colon) was 3.45 µM and the GI50 (TK-10 renal) was 3.99 µM. It also gave a TGI (TK-10 renal) of 9.5 µM, a GI50 (NCI-H522 lung) of 1.83 µM and a TGI (NCI-H522 lung) of 3.77 µM. The GI50 (IGROV1 ovarian) was 2.57 µM, the TGI (IGROV1 ovarian) was 11.2 µM and the GI50 (NCI/ADR-RES ovarian) was 2.49 µM. For the same compound, the TGI (NCI/ADR-RES ovarian) was 7.04 µM, the GI50 (SNB-19 CNS) was 3.71 µM and the TGI (SNB-19 CNS) was 25.5 µM. It also gave a GI50 (K-562 leukemia) of 3.26 µM, a TGI (K-562 leukemia) of 8 µM and a GI50 (HL-60(TB) leukemia) of 2.79 µM. The TGI (HL-60(TB) leukemia) was 7.88 µM, the GI50 (SF-539 CNS) was 4.77 µM and the TGI (SF-539 CNS) was 17.1 µM. The GI50 (SW-620 colon) was 2.89 µM, the TGI (SW-620 colon) was 10.7 µM and the GI50 (NCI-H23 lung) was 1.92 µM. It also gave a TGI (NCI-H23 lung) of 5.61 µM, a GI50 (A498 renal) of 1.88 µM and a TGI (A498 renal) of 6.31 µM. It also gave a GI50 (BT-549 breast) of 4.26 µM, a TGI (BT-549 breast) of 19.5 µM and a GI50 (KM12 colon) of 0.633 µM. It also gave a TGI (KM12 colon) of 2.37 µM, a GI50 (HOP-92 NSCLC) of 0.573 µM and a TGI (HOP-92 NSCLC) of 3.3 µM. It also gave a GI50 (U251 CNS) of 2.39 µM, a TGI (U251 CNS) of 7.09 µM and a GI50 (UACC-257 melanoma) of 2.91 µM. It also gave a TGI (UACC-257 melanoma) of 14.5 µM, a GI50 (OVCAR-3 ovarian) of 2.29 µM and a TGI (OVCAR-3 ovarian) of 5.58 µM. It also gave a GI50 (SK-OV-3 ovarian) of 3.63 µM, a TGI (SK-OV-3 ovarian) of 15 µM and a GI50 (UO-31 renal) of 2.22 µM. It also gave a TGI (UO-31 renal) of 8.79 µM, a GI50 (SR leukemia) of 2.59 µM and a TGI (SR leukemia) of 6.32 µM. It also gave a GI50 (RXF 393 renal) of 3.01 µM, a TGI (RXF 393 renal) of 8.72 µM and a GI50 (OVCAR-4 ovarian) of 2.7 µM. For the same compound, the TGI (OVCAR-4 ovarian) was 22.5 µM.

— PubChem BioAssay (NCI)
